# Results reported in patent US9475759B2, “Tigecycline crystalline hydrate and preparation method therefor and use thereof” (priority 2011, dated 2016).
# Assay: Test for hygroscopicity (hygroscopic weight gain)
# Assay type: physicochemical
# Conditions: 25° C., relative humidity about 70%, about 5 g sample, sampling time 12 hours
# Method: The tigecycline crystalline hydrates according to the invention can be stable for storage. A hygroscopicity test is conducted directed to a tigecycline hydrate sample and a tigecycline anhydride sample: about 5 g of the tigecycline anhydride and 5 g of the hydrate of the invention are taken, and they are placed in a dry and weight-constant surface vessel and precisely weighted. […] On the conditions of RH 75% and 30° C., the tigecycline crystalline hydrate is sealed in a vial for conducting a six-month acceleration stability test. According to the testing conditions of HPLC process of the tigecycline in relevant literatures: C18 (250 mm×4.6 mm, 5 μm) acetonitrile:phosphate buffer (1.29 g of citric acid and 2.76 g of anhydrous disodium hydrogen phosphate are dissolved in water and diluted to 1000 ml) (80:20) as the mobile phase; detection wavelength is 248 nm; the column temperature is room temperature; and the flowing rate is 1 ml/min. Under the conditions, the tigecycline contents and related substances are determined.
# The tigecycline hydrates of the present invention may be stable for storage. Samples of tigecycline hydrates and anhydrides and amorphous tigecycline are used to conduct the test for hygroscopicity: respectively, about 5 g tigecycline anhydrides (obtained by drying tigecycline.0.5H2O hydrate prepared according to Example 1), about 5 g amorphous tigecycline (prepared by referring to the process as described in the reference document CN101367747A) and about 5 g the hydrates of the present invention are placed in a dry and constant weight watch glass, and the system is precisely weighed.
row,SMILES,"As compared to the sample time of 0 h, weight gains % [%]"
1,"CN(C)c1cc(NC(=O)CNC(C)(C)C)c(O)c2c1C[C@H]1C[C@H]3[C@H](N(C)C)C(O)=C(C(N)=O)C(=O)[C@@]3(O)C(O)=C1C2=O [Amorphous tigecyline, tigecycline]",1.3
2,CN(C)c1cc(NC(=O)CNC(C)(C)C)c(O)c2c1C[C@H]1C[C@H]3[C@H](N(C)C)C(O)=C(C(N)=O)C(=O)[C@@]3(O)C(O)=C1C2=O [Tigecycline anhydride],1.4
3,"CN(C)c1cc(NC(=O)CNC(C)(C)C)c(O)c2c1C[C@H]1C[C@H]3[C@H](N(C)C)C(O)=C(C(N)=O)C(=O)[C@@]3(O)C(O)=C1C2=O.CN(C)c1cc(NC(=O)CNC(C)(C)C)c(O)c2c1C[C@H]1C[C@H]3[C@H](N(C)C)C(O)=C(C(N)=O)C(=O)[C@@]3(O)C(O)=C1C2=O.O [Tigecycline•0.5 H2O hydrate, Tigecycline.0.5H2O Hydrate]",0.2
4,"CN(C)c1cc(NC(=O)CNC(C)(C)C)c(O)c2c1CC1CC3C(N(C)C)C(O)=C(C(N)=O)C(=O)C3(O)C(O)=C1C2=O.O.O (stereo not shown) [Tigecycline•2 H2O hydrate, Tigecycline.2H2O Hydrate]",0.1
